Usually melting point stands for the temperature of the solid-liquid transition.

As to `CCC12CC(O)C(O)(c3ccccc3)CC1CC(O)c1cc(O)ccc12` (centres undefined), the melting point lay within 185 to 187 °C.

The molecule `CCN(CC)c1ccc(C(=O)C#Cc2ccncn2)cc1` had a melting point of 180 to 182 °C.

`CC(C)(C)OC(=O)N1CCc2cc(OCc3ccccc3)c(OCc3ccccc3)cc2C1Cc1ccc(N)c(I)c1` (centres undefined): the melting point lay within 169 to 171 °C.

The molecule `O=C1CN2C(=O)C(c3ccccc3)(c3ccccc3)c3cccc(c32)N1` displayed a melting point of 235 to 255 °C.

In turn, `O=C(Nc1ccc(F)c(NS(=O)(=O)c2cccs2)c1)c1ccc(F)c(F)c1` yielded a melting point of 202 to 203 °C.

As to `CCOC(Cc1ccc(OCCN2COc3ccccc3C2=O)cc1)C(=O)O` (centres undefined), the melting point is 103 to 105 °C.

Regarding `OCC(O)Cc1nccn1CCCCc1ccc(OCc2coc(/C=C/c3ccc(F)cc3F)n2)cc1` (centres undefined), the melting point is 126 to 128 °C.

As for `CCCOc1ccc(S(=O)(=O)N2CCN(C(C)=O)CC2)cc1-c1nc2cc(Cl)c([N+](=O)[O-])cc2c(=O)[nH]1`, the melting point lay within 215 to 217 °C.

Molecule `O=C(CC1CCC2(CC1)OOC1(CCCCCCCCCCC1)OO2)N1CCS(=O)(=O)CC1` displayed a melting point of 170 to 172 °C.

`CC(C)c1cccc(C(C)C)c1NC(=O)CS(=O)(=O)CCN1CCN(c2ccccc2)CC1` had a melting point of 197 to 200 °C.

`N#Cc1cccnc1Oc1cccc(Cl)c1`: the melting point fell in the range of 88 to 90 °C.

The molecule `N=C(NO)c1cc(C(F)(F)F)cc(-c2ccc(Cl)cc2)n1` showed a melting point of 180 to 186 °C.

For the molecule `COC(=O)c1ccc(OCCF)cc1`, the melting point stood at 77 °C.

In turn, `CCCCCCC#CC(O)C1=Nc2ccc(F)cc2C(=O)C1C` (centres undefined) yielded a melting point of 153 to 154 °C.

Take `CCCCN(C(C)=O)C1NC(=O)N(c2ccc(OC(C)=O)cc2)C(=O)N1`: the melting point is 206 to 208 °C.

Molecule `COc1ccccc1C(=O)CN1CCC(=O)C(C(c2ccc(F)cc2)c2ccc(F)cc2)C1` (centres undefined) registered a melting point of 148 to 149 °C.

On to `Cc1ccc2c(c1)C=Cc1ncccc1C2c1c[nH]c(=O)[nH]c1=S` (centres undefined), for which the melting point is more than 250 °C.

`O=c1[nH]c2ncc(-c3cccc(-c4cn[nH]n4)c3)nc2n1CC1CCCCC1`: the melting point was in the range of 299 to 301 °C.

`Cc1ccc(C(O)CCCO)cc1` (centres undefined) returned a melting point of 43 to 47 °C.

Regarding `O=C(O)c1ccc(-c2ccc(-c3ccc(Cl)cc3)s2)cc1`, the melting point was in the range of 285 to 286 °C.

`O=C(O)c1cc2ccccc2n1S(=O)(=O)c1cccc(Cl)c1` registered a melting point of 216 to 217 °C.

As to `COC(=O)[C@@H]1C[C@H](OC(=O)Nc2ccc([N+](=O)[O-])cc2)C(=O)[C@H]2[C@@]1(C)CC[C@H]1C(=O)O[C@H](c3ccoc3)C[C@]21C`, the melting point was 251 to 253 °C.

On to `Cc1cc(C)c2c(c1O)C(NC(=O)CN1CCN(c3cccc(Cl)c3)CC1)C(C)(C)C2` (centres undefined), for which the melting point was 125 to 126 °C.

`O=C1Nc2ccccc2SC1CCCCBr` (centres undefined) gave a melting point of 100 °C.

Consider `CSc1cc2c(cc1C(F)(F)F)N(C(=O)Nc1cccc(C(=O)Nc3cccnc3)c1)CC2`, for which the melting point lay in the range of 195 to 197 °C.

As to `O=C1CCC(N2Cc3c(OCc4cnc5ccccc5c4)cccc3C2=O)C(=O)N1` (centres undefined), the melting point was 270 to 273 °C.

For the molecule `COc1cc(/C=C/C(=O)CC(=O)CC(C)(C)C)ccc1O`, the melting point lay within 130 to 132 °C.

Consider `Cc1ccc(O)c2c1CCC1C2CCC2(C)C(O)CCC12` (centres undefined), for which the melting point lay within 226 to 229 °C.

For the molecule `CN1C(=N)N(c2ccc(Cl)cc2)CC1=O`, the melting point was in the range of 182 to 184 °C.

In turn, `CC(=O)OC1CSC(Oc2cnccc2-c2c(C)noc2C)C(OC(C)=O)C1OC(C)=O` (centres undefined) gave a melting point of 150 to 155 °C.

Consider `Clc1ccccc1Cn1ncnc1I`, for which the melting point was 98 °C.

The molecule `N#Cc1ccc(N2CCC(c3ccccc3)CC2)cc1` registered a melting point of 167 to 169 °C.

As for `CN(C)CCOc1cccc2cc(C(=O)Nc3ccccc3N)oc12`, the melting point lay within 108 to 118 °C.

Consider `CCOC(C[C@@H](CO)Cn1cnc2c(Cl)nc(N)nc21)OCC`, for which the melting point was 156 to 158 °C.

`COCCOCOCc1c(OC)ccc2c1Oc1c(ccc(OC)c1CO)N2C` returned a melting point of 68 to 70 °C.

For the molecule `CCOC(=O)c1ncn2c1C(C)N=C(c1ccccc1F)c1cc(C#C[Si](C)(C)C)ccc1-2` (centres undefined), the melting point was in the range of 186 to 187 °C.

Take `CC(Oc1ccc(CCNCC(O)COc2ccccc2)cc1)C(N)=O` (centres undefined): the melting point fell in the range of 117 to 119 °C.

As to `CCc1cc2cc(F)ccc2[nH]1`, the melting point lay in the range of 41 to 42 °C.

`CNc1cc(NS(=O)(=O)c2ccc(N)cc2)nc(NC)n1` yielded a melting point of 303 to 305 °C.

The molecule `Clc1ccc(N2CCN(CCC3OCCc4cc(Br)ccc43)CC2)cc1` (centres undefined) returned a melting point of 94 to 96 °C.

Consider `C#CCSc1ccncc1`, for which the melting point was in the range of 55 to 56 °C.

Consider `CC1(C)OC(=O)Nc2ccc(-c3coc(C=NO)c3)cc21`, for which the melting point is 236 to 238 °C.

For `O=C(O)COc1cccc2c1CCc1sc(SC(Cc3ccccc3)c3ccccc3)nc1-2` (centres undefined), the melting point fell in the range of 201 to 204 °C.

In turn, `Cc1cc2cc(F)ccc2n1-c1ccc(OCc2ccccc2)cc1` had a melting point of 94 to 95 °C.

On to `O=c1oc2c(O)c(O)ccc2c2ccccc12`, for which the melting point is 254 to 256 °C.

Regarding `Oc1c(-c2cccnc2)cccc1-c1cccnc1`, the melting point was determined as 211 °C.

For `O=S(=O)(Nc1ccc(Cl)cc1)c1ccc(Cl)cc1`, the melting point lay in the range of 144 to 146 °C.

As for `COc1cccc(C(=C/C=C/C(=O)NCCCCCCc2cccnc2)c2cccc(OC)c2)c1`, the melting point lay within 66 to 70 °C.

Consider `COc1cc2cccc3c2c(n1)-c1ccccc1C3=O`, for which the melting point is 190 to 192 °C.

In turn, `NNC(=O)c1cccc2nnsc12` displayed a melting point of 270 to 272 °C.

In turn, `COc1ccc(N2CCN(c3c(C)c(C)c4c(c3C)CC(C)(C)O4)CC2)c(OC)c1` displayed a melting point of 154 to 156 °C.

In turn, `CC(C)(C)OC(=O)N1CCC(C)(c2nc(-c3ccncc3)c(-c3ccc(F)cc3)[nH]2)CC1` returned a melting point of 157 to 160 °C.

As for `CCC1C(=O)Nc2ccc(-c3ccc(C#N)n3C)cc21` (centres undefined), the melting point was in the range of 145 to 147 °C.

`COC(=O)c1nc(-c2ccc(Cl)c(OC)c2F)nc(N)c1C(C)F` (centres undefined) gave a melting point of 150 to 152 °C.

Turning to `COc1ccc(C=CC(=O)C2C(=O)C=C(C)OC2=O)cc1O` (centres undefined), the melting point is 217 to 219 °C.

As for `Clc1cc2c(cc1Cl)Nc1cscc1CN2`, the melting point was 195 to 197 °C.

With `CCOC(=O)[C@H](CCc1ccccc1)NC(=O)C(C)(C)NC(=O)[C@@H](S)C1CCOCC1`, the melting point fell in the range of 157 to 158 °C.

Molecule `Cc1cc(N(C)S(C)(=O)=O)ccc1I` showed a melting point of 85 to 87 °C.

Take `CCOC(=O)c1c(N)c2cccnc2n(C2CCCCC2)c1=O`: the melting point fell in the range of 172 to 175 °C.

Take `COc1ccc(CC(C)(N)C(=O)O)cc1OC` (centres undefined): the melting point lay in the range of 244 to 246 °C.

In turn, `N=C(N)Nc1nc(-c2ccccc2[N+](=O)[O-])cs1` gave a melting point of 176 to 178 °C.

Molecule `CCC1(C)CC(=NO)C(C)C(C)(CC)N1OC(C)c1ccccc1` (centres undefined) gave a melting point of 130 to 145 °C.

Take `Cc1c(C)c2c(c(C)c1O)SC(c1ccccc1O)O2` (centres undefined): the melting point fell in the range of 175 to 176 °C.

In turn, `Cc1c(F)c(F)c(C(O)C#N)c(F)c1F` (centres undefined) came in with a melting point of 124 °C.

For `CC(=O)N1c2ccccc2CCc2ccc(C(=O)O)cc21`, the melting point was 189 to 190 °C.

Consider `CNC(=O)Cc1ccc2c(c1)Cc1c-2[nH]c(=O)c2nccn12`, for which the melting point was more than 260 °C.

For `CNCc1ccccc1-c1ccc(C(=O)N2Cc3ccc(C(=O)NCc4cccnc4)n3Cc3ccccc32)cc1`, the melting point fell in the range of 149 to 150 °C.

For the molecule `O=C(NCc1ccccc1)c1[nH]c2ccc(Cl)cc2c1S(=O)(=O)c1ccccc1`, the melting point fell in the range of 249 to 251 °C.

The molecule `CC(C)c1cccc(C(C)C)c1NC(=O)CN1CN(c2ccccc2)C2(CCCCC2)C1` yielded a melting point of 151 to 153 °C.

`O=C1N(c2cc(Cl)nc(Cl)c2)C(=O)C2(Cc3ccc(Br)cc3)CCCN12` (centres undefined) came in with a melting point of 76.3 °C.

Turning to `C=C(C)Cc1c(O)c(C)c(C)c2c1CC(C)(C)N2C=O`, the melting point lay in the range of 116 to 118 °C.

Molecule `CN1CCC[C@@H]1Cc1c[nH]c2ccc(CS(=O)(=O)NC(C)(C)C)cc12` registered a melting point of 73 to 75 °C.

In turn, `CC(=O)NC[C@H]1CN(c2ccc(C3=CCSCC3)c(F)c2)C(=O)O1` showed a melting point of 119 to 122 °C.

Take `O=C(O)C1Cc2c(n(Cc3ccccc3)c3ccccc23)CN1` (centres undefined): the melting point is 252 to 253 °C.

In turn, `O=C(N=C1CCCN1Cc1ccccc1)Nc1ccc(F)c(Cl)c1` came in with a melting point of 131 to 132 °C.

`Cc1ccc2c(=O)c(C(=O)O)cn(CCOC=O)c2n1` returned a melting point of 213 to 214 °C.

`CC(C)OCCNc1ccccc1C(=O)C(=O)OC(=O)C(=O)c1ccccc1NCCOC(C)C` came in with a melting point of 107 to 108 °C.

In turn, `N#CCc1ccc(-c2onc3ccccc23)cc1` gave a melting point of 118 to 121 °C.

Molecule `CCCCCS(=O)(=O)NC(=O)CCc1ccc(OCCOC)cc1Oc1ncc(Cl)cc1Cl` showed a melting point of 92.2 to 93.6 °C.

For the molecule `CCn1c(=N)c(-c2ccc(-c3ccccc3)cc2)cc2cnc(Nc3ccccc3)nc21`, the melting point lay in the range of 245 to 249 °C.

The molecule `Cc1cc2nc3c4cc(Br)ccc4n(CCN(C)C)c3nc2cc1C` had a melting point of 146 to 147 °C.

The molecule `COC(=O)CN(C)c1nc(-c2ccc(-c3ccccc3)cc2)c(C(=O)OC)s1` came in with a melting point of 141 °C.

Consider `O=C(O)Cc1ccccc1OCc1cn(-c2ccc(C(F)(F)F)cn2)nc1C1CCCCC1`, for which the melting point is 131 to 132 °C.

Turning to `COc1ccccc1N1CCN(CCCC2(c3ccc(F)cc3)OCc3cc(C#N)ccc32)CC1` (centres undefined), the melting point was in the range of 147 to 149 °C.

`CC(C)c1ccccc1Sc1c(O)cc(-c2ccc(OCc3ccccc3)cc2)oc1=O` registered a melting point of 163 to 165 °C.

As for `CC(=O)Oc1cc(OCC(OC(C)=O)c2ccc3c(c2)C(C)(C)CCC3(C)C)ccc1C(=O)O` (centres undefined), the melting point lay in the range of 88 to 89 °C.

As to `CCCCc1nc2c(N)nc3ccccc3c2n1CCCCSC`, the melting point is 127 to 130 °C.

`O=C1OC(c2ccccc2)=NC1=Cc1c(O)ccc2ccccc12` had a melting point of 228 to 229 °C.

Consider `Cc1nc(-c2ccccc2)cc(-c2ccc([N+](=O)[O-])cc2)c1C(=O)O`, for which the melting point lay within 260 to 263 °C.

These data come from a melting point compilation (Tetko et al.; mined from patent text by program, amines drawn as free bases though some values may be those of a salt).
